In patent US4581360A, “Sparsomycin (Sc -Rs) derivative; pharmaceutical composition having anti-tumor activity” (priority 1982, dated 1986):
Converted amounts (≈) assume the structure as drawn. Like-named read-outs stand apart in the source and are kept apart here.

Assays:
[1] = tested on: ribosomes from Saccharomyces cerevisiae (protein synthesis); assay: inhibition of polyphenylalanine synthesis, cell-free system; assay type: biochemical; conditions: 30 min, read-out: ED50 s.c. polyphe
Protocol: (§1) The activity of the novel compounds was also measured in two cell-free systems, namely Saccharomyces cerevisiae and E. coli, a […]. The inhibition of the protein biosynthesis was measured, and this in two ways, by means of both the fragment reaction (R. E. Monro, Methods Enzymol. 1971, 20, 472) and the inhibition of the polyphenylalanine synthesis (N. W. Nirenberg, H. Matthei, Proc.Natl. Acad. Sci. USA 1961, 47, 1588). The concentration of sparsomycin or an analog giving 50% inhibition of the protein synthesis relative to the control is given as ED50.
(§2) Polyphenylalanine synthesis. The reaction mixture was slightly different for E. coli and for yeast.
E. coli. The reaction mixture (50 μl) contained 65 mM Tris-HCl pH 7.6, 15 mM MgCl2, 90 mM KCl, 15 mM β-mercaptoethanol, 1 mM GTP, 10 mM ATP, 0.2 mg/ml of polyuridylic acid, 1.5 mg/ml of tRNA, 10 μM of ribosomes, 2.5 mg/ml of phosphoenolpyruvate, 20 μg/ml of pyruvate kinase, the required concentration of sparsomycin analog, as indicated in the text, and 5 μl of supernatant fraction S-100. (^3 H)phenylalanine 30 μM (about 60 cpm/pmol) was added to start the reaction. Incubation was at 37° C. for 30 min. The reaction was stopped by addition of 1 ml of 10% TCA and the samples filtered through glass fiber. The filters were washed with 10 ml of cold 10% TCA, dried and counted for radioactivity.
Yeast. The test was carried out as indicated above for E. Coli but replacing the phosphoenol pyruvate and pyruvate kinase by creatine phosphokinase (50 μg/ml) and creatine phosphate (20 mM). The incubation was performed at 30° C. for 30 min. and the samples processed as above.
In these conditions the control samples polymerized 3 to […] 14 molecules of phenylalanine per ribosome in the case of yeast and E. coli respectively. […]

[2] = tested on: leukemia L 1210 cells; assay: in-vitro clonogenic L 1210 assay (inhibition of colony formation in soft agar); assay type: cell-based; conditions: for IC50: Mus musculus, L1210, 72 h, read-out: ID50 (dose giving 50% inhibition of L 1210 colony formation)
Protocol: The in-vitro clonogenic assay was effected in leukemia L 1210 cells in soft agar medium (0.3%). There is a good correlation between the activity in vitro and that in vivo of the medicaments investigated. On the basis of the findings in the in-vitro analysis, therefore, the in-vivo activity can be predicted with good results. In the analysis, the inhibition of the L 1210 colony formation by sparsomycin and derivates thereof is determined for various concentrations, and the dose giving 50% inhibition of the colony formation, as compared with non-treated control cells is calculated (ID50). The analysis is carried out as follows (variant of the method described in Cancer Chemother.Rep. (1967), 51, 451).
From a suspension culture one hundred L 1210 cells are plated out in 35 mm culture dishes (Falcon) containing 1 ml soft agar culture medium and the compound to be investigated in suitable concentrations. The soft agar culture medium consists of Dulbecco's medium supplemented with 20% horse serum, 60 μmole 2-mercaptoethanol, 20 mg/ml L-asparagine, 75 mg/ml DEAE dextran (molecular weight 2×10^6) and 0.3% bacto agar (Difco). The culture dishes were incubated at 37° C. in an atmosphere of 10% CO2 in humidified air for 3 days. After this period of continuous exposure to the medicament the colonies were counted and dose-effect curves made. From these curves, the medicament dose is calculated which causes 50% inhibition of the colony formation as compared with non-treated control cells.

[3] = tested on: ribosomes from E. coli (protein synthesis); assay: inhibition of polyphenylalanine synthesis, cell-free system; assay type: biochemical; conditions: 30 min, read-out: ED50 E. coli polyphe
Protocol: The activity of the novel compounds was also measured in two cell-free systems, namely Saccharomyces cerevisiae and E. coli, a prokaryotic and a eukaryotic system, respectively.
as §2
E. coli. […] (^3 H)phenylalanine 30 μM (about 60 cpm/pmol) was added to start the reaction. Incubation was at 37° C. for 30 min. The reaction was stopped by addition of 1 ml of 10% TCA and the samples filtered through glass fiber. The filters were washed with 10 ml of cold 10% TCA, dried and counted for radioactivity.

[4] = tested on: ribosomes from E. coli (peptidyl transferase); assay: fragment reaction, cell-free system; assay type: biochemical; conditions: 30% ethanol in water, 30 min, read-out: ED50 E. coli fragment reaction
Protocol: as §1
(§3) Fragment reaction. The reaction described originally by Monro (see reference in the text) was carried out in 150 μl of 33 mM Tris-HCl pH 7.4, 270 mM KCl, 13 mM magnesium acetate containing 1 mg/ml of ribosomes, 2.10^-3 M puromycin, 1 pmol of (^3 H)Leu-ACCAC(U), the required concentration of sparsomycin analog as indicated in the text and 33% ethanol. The reaction was initiated by the addition of the alcohol and allowed to proceed at 0° C. for 30 min. and then stopped by the addition of 100 μl of 0.3M sodium acetate pH 5.5 saturated with MgSO4. The samples were extracted with 1.5 ml of ethyl acetate and 1 ml of the organic phase was checked for radioactivity.
(§4) The 3' terminal pentanucleotide (^3 H)Leu-ACCAC(U) was prepared from (^3 H)Leu-tRNA by ribonuclease T1 as described (Monro, as above).
(§5) Ribosomes and supernatant fractions from E. coli and Saccharomyces cerevisiae were prepared according to standard procedures (Staehelin, T. and Maglott D. R. (1971). Methods Enzymol. 20, 449-456; Sanchez-Madrid, F., Reyes, R., Conde, P. and Ballesta, J. P. G. (1979) Eur. J. Biochem. 98, 409-416).

[5] = tested on: ribosomes from Saccharomyces cerevisiae (peptidyl transferase); assay: fragment reaction, cell-free system; assay type: biochemical; conditions: 30% ethanol in water, 30 min, read-out: ED50 s.c. fragment reaction
Protocol: as §1, §3, §4, §5

[6] = solubility in water; assay type: physicochemical
Protocol: The n-octylsparsomycin is poorly dissolved in water (about 0.2 mg/ml water), whereas benzylsparsomycin is dissolved well in water (1.5 mg/ml water). As a consequence, the use of the latter compound is highly attractive.

[7] = acute toxicity (LDx values); assay type: in vivo; conditions: in vivo, mouse
Description: (§6) The acute LDx values (lethal dose for x% of the animals) are shown below.

[8] = pharmacokinetics in dog; conditions: iv
[9] = tested on: mouse; assay: acute toxicity (LDx values); assay type: in vivo; conditions: i.p.
Description: as §6

[10] = clinical tests (Cancer.Chemother.Rep. (1969), 43, 29); cited from earlier work
[11] = tested on: whole reticulocytes; conditions: Biochem.Biophys. Acta (1966), 119, 109; cited from earlier work
[12] = L 1210 cells, soft agar 0.3%, 3 days continuous exposure

SMILES: CSC[S@+]([O-])C[C@H](COC(C)=O)NC(=O)/C=C/c1c(C)[nH]c(=O)[nH]c1=O [O--acetylsparsomycin, O-acetyl-sparsomycin (Sc -Rs)]
- IC50 [1]: 3 µM
- IC50 [2, 12]: 0.15 µg/mL (≈ 0.372 µM)
- IC50 [3]: 8 µM
- IC50 [4]: 15 µM
- IC50 [5]: 50 µM

SMILES: Cc1[nH]c(=O)[nH]c(=O)c1C=CC(=O)NC(CO)C[S+]([O-])CSCc1ccccc1 (stereo not shown) [benzylsparsomycin, Benzylsparsomycin (Sc -Rs)]
- IC50 [2]: 0.048 µg/mL (≈ 0.11 µM)
- solubility ([6]; H2O, pH=7, read-out: Solubility in H2O (pH=7)): 1500 µg/mL (≈ 3430 µM)
- solubility ([6]; read-out: solubility in water): 1500 µg/mL (≈ 3430 µM)
- IC50 [3]: 0.8 µM

SMILES: CCCCCCCCSC[S@+]([O-])C[C@H](CO)NC(=O)/C=C/c1c(C)[nH]c(=O)[nH]c1=O [n-octylsparsomycin, n-octyl-sparsomycin (Sc -Rs)]
- IC50 [1]: 0.35 µM
- activity relative to sparsomycin proper ([2]; L 1210 colony formation, concentrations in ng/ml): approximately 3
- activity relative to sparsomycin, concentrations expressed in μmole/ml ([2]; L 1210 colony formation, concentrations in μmole/ml): approximately four times higher
- IC50 [2, 12]: 0.047 µg/mL (≈ 0.102 µM)
- LD50 ([7]; iv): > 30 mg/kg
- solubility ([6]; read-out: solubility in water): ~200 µg/mL (≈ 435 µM)
- IC50 [3]: 1.5 µM
- dose excreted ([8]; bile, 0.7 mg/kg): 3.4%
- AUC ([8]; in vivo, 0.7 mg/kg): 1100 ng·h/mL
- half-life ([8]; in vivo, 0.7 mg/kg): 1.1 h
- AUC ([8]; in vivo, 0.9 mg/kg): 1200 ng·h/mL
- half-life ([8]; in vivo, 0.9 mg/kg): 1.6 h
- dose excreted ([8]; urine, 0.7 mg/kg): 0%
- IC50 [4]: 80 µM
- IC50 [5]: 180 µM

SMILES: CSC[S@+]([O-])C[C@H](CO)NC(=O)/C=C/c1c(C)[nH]c(=O)[nH]c1=O [sparsomycin, Sparsomycin (Sc -Rs)]
- IC50 [1]: 4 µM
- IC50 [2]: 0.15 µg/mL (≈ 0.415 µM)
- LD50 ([7]; ip): 14 mg/kg
- LD10 [9]: 8.0 mg per kg mouse
- IC50 [3]: 9 µM
- toxicity in clinical tests [10]: eye toxicity
- activity against whole reticulocytes [11]: not active
- AUC ([8]; in vivo, 0.7 mg/kg): 1300 ng·h/mL
- half-life ([8]; in vivo, 0.7 mg/kg): 1.1 h
- dose excreted ([8]; in vivo, 0.7 mg/kg, Recovery in urine, i.v. bolus): 24%
- AUC ([8]; in vivo, 1.48 mg/kg): 10800 ng·h/mL
- half-life ([8]; in vivo, 1.48 mg/kg): 2.3 h
- dose excreted ([8]; in vivo, 1.48 mg/kg, Recovery in gall liquid, i.v. bolus): 2%
- dose excreted ([8]; in vivo, 1.48 mg/kg, Recovery in urine, i.v. bolus): 55%
- IC50 [4]: 6 µM
- IC50 [5]: 15 µM
